These results are taken from ChEMBL document CHEMBL4411306, “High-throughput screening of novel pyruvate dehydrogenase kinases inhibitors and biological evaluation of their in vitro and in vivo antiproliferative activity” (Eur J Med Chem, 2019).

Activity calls are given as the source filed them. The rule behind the calls is not given here.

Data set [1] in a line: Permeability across human Caco2 cells by liquid scintillation counting method. The format is ADME, cell-based. The settings on record: caco-2. On the technique in general: Caco-2 cells form a polarised layer with tight junctions and transporters.
For data set [2], the system named is NCI-H1975. Briefly: Inhibition of PDK in human NCI-H1975 cells assessed as reduction in PDH phosphorylation at 10 uM after 12 hrs by Western blot analysis. The format is cell-based. (A western blot detects proteins with antibodies after separation by electrophoresis.)
A short description of data set [3]: Inhibition of porcine PDK assessed as activation of pyruvate dehydrogenase complex measured after 3 mins. Set-up: species or system Sus scrofa.
In data set [4] the target is T1, [Pyruvate dehydrogenase (acetyl-transferring)] kinase isozyme 2, mitochondrial (Homo sapiens, UniProt Q15119). Briefly: Inhibition of E2-activated human PDHK2.
The test system of data set [5] is NCI-H1975. In words: Inhibition of PDK in human NCI-H1975 cells assessed as reduction in PDH phosphorylation at 10 mM after 12 hrs by Western blot analysis. The format is cell-based.
The target of data set [6] is T2, [Pyruvate dehydrogenase (acetyl-transferring)] kinase isozyme 1, mitochondrial (Homo sapiens, UniProt Q15118). The settings on record: NCI-H1975, 10 mM.
T2 sequence (Q15118 whole entry): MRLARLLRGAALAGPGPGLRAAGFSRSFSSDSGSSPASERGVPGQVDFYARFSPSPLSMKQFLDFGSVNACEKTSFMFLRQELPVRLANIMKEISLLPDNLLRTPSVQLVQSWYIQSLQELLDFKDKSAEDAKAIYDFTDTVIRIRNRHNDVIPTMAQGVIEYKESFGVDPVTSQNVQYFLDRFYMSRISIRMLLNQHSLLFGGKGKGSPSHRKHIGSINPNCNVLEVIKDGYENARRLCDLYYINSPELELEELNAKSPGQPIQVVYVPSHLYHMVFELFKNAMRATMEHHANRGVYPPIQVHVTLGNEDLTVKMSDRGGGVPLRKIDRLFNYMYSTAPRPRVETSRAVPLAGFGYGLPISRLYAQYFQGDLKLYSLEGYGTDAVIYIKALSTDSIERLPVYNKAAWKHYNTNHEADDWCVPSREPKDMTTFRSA
Description: Inhibition of PDK1 in human NCI-H1975 cells assessed as switch of pyruvate metabolism from lactate production to oxidative phosphorylation by measuring decrease in extracellular acidification rate at 10 mM measured after 4 hrs by XFe24 extracellular flux analyzer based assay
Data set [7] concerns NCI-H1975. In words: Inhibition of PDK in human NCI-H1975 cells assessed as reduction in PDH phosphorylation at Ser293 residue at 10 mM by ELISA. It counts as cell-based.
For another data set, the species on record is Sus scrofa. Briefly: Inhibition of porcine PDK assessed as activation of pyruvate dehydrogenase complex at 10 mM measured after 3 mins relative to control.
Data set [8] addresses T2, [Pyruvate dehydrogenase (acetyl-transferring)] kinase isozyme 1, mitochondrial. The settings on record: NCI-H1975, 10 mM. The source holds these as a separate data set.
Description: Inhibition of PDK1 in human NCI-H1975 cells assessed as switch of pyruvate metabolism from lactate production to oxidative phosphorylation by measuring increase in oxygen consumption rates at 10 mM measured after 4 hrs by XFe24 extracellular flux analyzer based assay
Data set [9] has the same target. Particulars: NCI-H1975, 10 mM. The source holds these as a separate data set.
Description: Inhibition of PDK1 in human NCI-H1975 cells assessed as switch of pyruvate metabolism from lactate production to oxidative phosphorylation by measuring by measuring reduction in lactate formation at 10 mM measured after 4 hrs
A further data set deals with NCI-H1650. In words: Antiproliferative activity against human NCI-H1650 cells assessed as reduction in cell viability after 72 hrs by MTT assay. The format is functional. (In general: Tetrazolium assays rely on reduction of a dye to a coloured formazan, in cell work by metabolically active cells.)
The subject of a further data set is A-375. In words: Antiproliferative activity against human A375 cells assessed as reduction in cell viability after 72 hrs by MTT assay. The format is functional.
For the next data set, the system named is HCT-116. Briefly: Antiproliferative activity against human HCT116 cells assessed as reduction in cell viability after 72 hrs by MTT assay. It counts as functional.
The target of data set [10] is T2, [Pyruvate dehydrogenase (acetyl-transferring)] kinase isozyme 1, mitochondrial. In words: Inhibition of recombinant human His-tagged PDK1 expressed in Escherichia coli using PDH E1 as substrate measured after 30 mins by Kinase-Glo luminescence assay.
Data set [11] is described as follows: Antiproliferative activity against human BEAS2B cells assessed as reduction in cell viability after 72 hrs by MTT assay. The settings on record: BEAS-2B cells, read-out: GC50. It counts as cell-based.
In the next data set the test system is MCF7. Briefly: Antiproliferative activity against human MCF7 cells assessed as reduction in cell viability after 72 hrs by MTT assay. The format is functional.
A further data set concerns A549. In words: Antiproliferative activity against human A549 cells assessed as reduction in cell viability after 72 hrs by MTT assay. It counts as functional.
Data set [12] deals with T1, [Pyruvate dehydrogenase (acetyl-transferring)] kinase isozyme 2, mitochondrial. In words: Inhibition of recombinant human His-tagged PDK2 expressed in Escherichia coli using PDH E1 as substrate measured after 30 mins by Kinase-Glo luminescence assay.
For data set [13], the system named is NCI-H1975. In words: Antiproliferative activity against human NCI-H1975 cells assessed as reduction in cell viability after 72 hrs by MTT assay. The format is functional.
The target of data set [14] is [Pyruvate dehydrogenase (acetyl-transferring)] kinase isozyme 3, mitochondrial (Homo sapiens, UniProt Q15120). In words: Inhibition of recombinant human His-tagged PDK3 expressed in Escherichia coli using PDH E1 as substrate measured after 30 mins by Kinase-Glo luminescence assay.
Chain of [Pyruvate dehydrogenase (acetyl-transferring)] kinase isozyme 3, mitochondrial (Q15120 whole entry): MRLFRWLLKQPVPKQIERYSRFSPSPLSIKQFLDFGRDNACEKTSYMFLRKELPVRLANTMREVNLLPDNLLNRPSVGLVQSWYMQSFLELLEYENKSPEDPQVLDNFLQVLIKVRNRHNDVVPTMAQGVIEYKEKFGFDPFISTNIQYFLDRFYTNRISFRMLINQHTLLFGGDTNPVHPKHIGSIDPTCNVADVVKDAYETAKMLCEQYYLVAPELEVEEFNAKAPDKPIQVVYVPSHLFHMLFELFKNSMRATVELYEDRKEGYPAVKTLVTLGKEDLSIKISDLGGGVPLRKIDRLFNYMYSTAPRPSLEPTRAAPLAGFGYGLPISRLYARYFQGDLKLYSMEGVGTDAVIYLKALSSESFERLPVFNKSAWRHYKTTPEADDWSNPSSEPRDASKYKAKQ
The test system of the next data set is HepG2. In words: Antiproliferative activity against human HepG2 cells assessed as reduction in cell viability after 72 hrs by MTT assay. It counts as functional.
A further data set addresses Heat shock protein HSP90 (Homo sapiens, UniProt P07900+P08238). Briefly: Inhibition of human HSP90 measured after 30 mins by fluorescence polarization assay. It counts as protein assay.
Data set [15] has as its target [Pyruvate dehydrogenase (acetyl-transferring)] kinase isozyme 4, mitochondrial (Homo sapiens, UniProt Q16654). Briefly: Inhibition of recombinant human His-tagged PDK4 expressed in Escherichia coli using PDH E1 as substrate measured after 30 mins by Kinase-Glo luminescence assay.
Data set [16] deals with T2, [Pyruvate dehydrogenase (acetyl-transferring)] kinase isozyme 1, mitochondrial. Briefly: Binding affinity to recombinant human His-tagged PDK1 expressed in Escherichia coli by isothermal calorimetry.

Chain of [Pyruvate dehydrogenase (acetyl-transferring)] kinase isozyme 4, mitochondrial (Q16654 whole entry): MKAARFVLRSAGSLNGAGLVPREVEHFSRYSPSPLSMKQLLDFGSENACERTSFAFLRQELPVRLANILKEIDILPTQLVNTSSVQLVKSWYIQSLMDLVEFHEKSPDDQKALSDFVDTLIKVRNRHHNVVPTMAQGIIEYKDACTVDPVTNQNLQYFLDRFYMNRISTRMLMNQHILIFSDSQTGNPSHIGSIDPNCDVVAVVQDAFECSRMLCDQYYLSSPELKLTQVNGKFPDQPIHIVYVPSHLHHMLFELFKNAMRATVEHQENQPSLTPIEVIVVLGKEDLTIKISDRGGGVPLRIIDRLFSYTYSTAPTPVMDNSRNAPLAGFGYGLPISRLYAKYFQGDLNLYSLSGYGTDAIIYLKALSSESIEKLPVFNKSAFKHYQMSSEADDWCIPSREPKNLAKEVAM

In general, Papp refers to a coefficient for how fast a substance crosses the barrier. For `COc1cccc2c1C(=O)c1c(O)c3c(c(O)c1C2=O)C[C@@](O)(C(=O)CO)C[C@@H]3O[C@H]1C[C@H](N)[C@H](O)[C@H](C)O1` [DOXORUBICIN], in data set [1], the Papp stood at 2.1 nm/s.
The EC50 is the concentration at which the effect is half-maximal. Turning to `CCOc1ccc([C@@H]2C(C(=O)Nc3cccnc3)=C(C)Nc3nc(CCCO)nn32)cc1`, the “reduction in PDH phosphorylation (qualitative)” value (“reduction in PDH phosphorylation” below) with NCI-H1975 [2] was “Active”. In [3], the EC50 was found to be 5.9 µM.
For the molecule `CC(=O)N[C@@H](Cc1c[nH]c2ccccc12)C(=O)NCCOc1ccc(C2CCCCC2)cc1`, the “reduction in PDH phosphorylation” value in the data set with NCI-H1975 [2] was “Active”. Also, the EC50 in data set [3] stood at 3.5 µM.
The molecule `CC(C)Cc1ccc(C(C)C(=O)O)cc1` (centres undefined) [IBUPROFEN] showed a Papp in data set [1] of 472 nm/s.
Broadly, the IC50 is the concentration that inhibits the measured activity by half. For `C[C@@H]1CN(C(=O)[C@](C)(O)C(F)(F)F)[C@@H](C)CN1C(=O)c1ccc(C#N)cc1`, the IC50 in [4] is 0.0078 µM.
In general, inhibition refers to the share of the control response that was lost under treatment. As to `O=C(O)C(Cl)Cl` [DICHLOROACETIC ACID], the inhibition result (with NCI-H1975 [5]; in data set [6]; with NCI-H1975 [7]; in data set [8]; in data set [9]) was “Active” throughout. For the same molecule, the inhibition in the data set listed under Sus scrofa came out at 54.8%. Also, the EC50 in data set [3] is above 100 µM.
With `O=C(Nc1ccc(Cl)cc1C(=O)N1CCCC[C@@H]1CCO)c1ccc(Cl)cc1Cl`, in the data set on NCI-H1975 [2], the “reduction in PDH phosphorylation” value is “Active”. Also, in [3], the EC50 was 8.4 µM.
As for `Cc1ccc(NC(=O)CSc2c[nH]c(-c3ccccc3O)n2)cc1`, the “reduction in PDH phosphorylation” value with NCI-H1975 [2] was “Active”. Besides, the EC50 in data set [3] was 4.6 µM.
With `COc1ccc(C(=O)CSc2nnc(CNc3ccccc3OC)n2-c2ccccc2)cc1`, the “reduction in PDH phosphorylation” value with NCI-H1975 [2] was “Active”. In addition, the EC50 in data set [3] came out at 5.2 µM.
For the molecule `O=C(c1ccccc1)C(Cl)Cl`, the “reduction in PDH phosphorylation” value in the data set with NCI-H1975 [2] was “Active”. In data set [3], the EC50 is above 1000 µM.
As a reminder, the Kd is the concentration at which binding is half-saturated. On to `CC(C)CNS(=O)(=O)c1ccc(OCC(=O)N(Cc2ccccc2)Cc2ccccc2)cc1`, for which the Activity result in the data set with NCI-H1650, in the data set with A-375, in the data set with HCT-116, with MCF7, in the data set on A549 and in the data set on NCI-H1975 [13] was “Dose-dependent effect” throughout. The Activity entry in the data set with HepG2 is “Dose-dependent effect”. For the same molecule, the GC50 is above 20 µM in the data set on NCI-H1650; 12.3 µM with A-375; above 20 µM with HCT-116; above 20 µM in the data set with MCF7; 17.5 µM in the data set on A549; above 20 µM in the data set with NCI-H1975 [13]. The GC50 in the data set on HepG2 worked out at 18.2 µM. Also, the “reduction in PDH phosphorylation” value in the data set on NCI-H1975 [2] is “Active”. Also, the Papp in data set [1] was 11.4 nm/s. In addition, the IC50 was found to be 0.89 µM in data set [10]; 5.9 µM in [12]; 4.9 µM in data set [14]; 3.58 µM against Heat shock protein HSP90; 6.9 µM in data set [15]. In [11], the GI50 at 72 h is above 20 µM. Also, the EC50 in data set [3] worked out at 1.4 µM. In addition, the Kd in [16] stood at 1.49 µM.
`COc1ccc(-c2nnn(CC(=O)Nc3cccc(F)c3)n2)cc1`: the “reduction in PDH phosphorylation” value in the data set on NCI-H1975 [2] is “Active”. The EC50 in data set [3] was 6.9 µM.
For the molecule `C[C@H]1CCc2c(sc3nc(SCCN4CCCC4)n(N)c(=O)c23)C1`, the Activity entry in the data set on NCI-H1650, with A-375, with HCT-116, with MCF7, with A549 and with NCI-H1975 [13] was “Dose-dependent effect” each time. Further, the Activity entry in the data set on HepG2 was “Dose-dependent effect”. Further, the GC50 in the data set with NCI-H1650 was 16.3 µM; in the data set on A-375 it was above 20 µM; in the data set with HCT-116, above 20 µM; in the data set on MCF7 it was above 20 µM; with A549 it was above 20 µM; with NCI-H1975 [13], 15.6 µM. For the same molecule, the GC50 in the data set on HepG2 was above 20 µM. Moreover, the “reduction in PDH phosphorylation” value in the data set on NCI-H1975 [2] was “Active”. Moreover, in data set [1], the apparent permeability coefficient (Papp) was found to be 9.6 nm/s. Moreover, the IC50 turned out to be 5.9 µM in data set [10]; 10.5 µM in [12]; 8.3 µM in data set [14]; 2.7 µM against Heat shock protein HSP90; 14.7 µM in [15]. For the same molecule, the GI50 at 72 h in [11] is above 20 µM. Moreover, the EC50 in [3] was 1.6 µM. Moreover, the Kd in data set [16] was 3.5 µM.
Turning to `Cc1cnc(Cl)nc1-c1ccc(N(Cc2ccc(CNC(=O)C(F)F)cc2)C(=O)c2ccc(O)cc2O)cc1`, the EC50 in [3] was 0.12 µM.
In data set [4], `CN(C)C(=O)c1ccc(S(=O)(=O)c2ccc(NC(=O)[C@@](C)(O)C(F)(F)F)c(Cl)c2)cc1` displayed a 50% inhibitory concentration (IC50) of 0.08 µM.
